Results on 22 compounds are retold here after ChEMBL document CHEMBL1138752, “2-Pyrazolyl-N(6)-substituted adenosine derivatives as high affinity and selective adenosine A(3) receptor agonists” (J Med Chem, 2004).

One test addresses T1, Adenosine receptor A3 (Homo sapiens, UniProt P0DMS8).
T1 sequence (P0DMS8 whole entry): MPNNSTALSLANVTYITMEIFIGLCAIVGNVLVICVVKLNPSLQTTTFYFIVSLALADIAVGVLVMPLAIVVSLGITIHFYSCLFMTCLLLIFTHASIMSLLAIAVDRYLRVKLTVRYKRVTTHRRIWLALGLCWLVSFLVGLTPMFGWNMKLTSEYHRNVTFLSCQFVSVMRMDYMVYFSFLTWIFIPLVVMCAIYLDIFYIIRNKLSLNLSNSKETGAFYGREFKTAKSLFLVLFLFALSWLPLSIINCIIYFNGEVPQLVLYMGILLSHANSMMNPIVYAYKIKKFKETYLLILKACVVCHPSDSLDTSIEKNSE
Nature of the test: biochemical.

For another test, the target named is Adenosine receptor A2a (Homo sapiens, UniProt P29274). Nature of the test: biochemical.
Test [1] has as its target Adenosine receptors; A2a & A3 (Homo sapiens) (UniProt P0DMS8+P29274). Nature of the test: Ratio of binding to adenosine A2a and adenosine A3 receptor. Type of test: protein assay.
The target in test [2] is Adenosine receptors; A1 & A3 (Homo sapiens) (UniProt P30542+P0DMS8). Nature of the test: Ratio of binding to adenosine A1 and adenosine A3 receptor. It counts as protein assay.
A further test deals with T2, Adenosine receptor A1 (Homo sapiens, UniProt P30542).
T2 sequence (P30542 whole entry): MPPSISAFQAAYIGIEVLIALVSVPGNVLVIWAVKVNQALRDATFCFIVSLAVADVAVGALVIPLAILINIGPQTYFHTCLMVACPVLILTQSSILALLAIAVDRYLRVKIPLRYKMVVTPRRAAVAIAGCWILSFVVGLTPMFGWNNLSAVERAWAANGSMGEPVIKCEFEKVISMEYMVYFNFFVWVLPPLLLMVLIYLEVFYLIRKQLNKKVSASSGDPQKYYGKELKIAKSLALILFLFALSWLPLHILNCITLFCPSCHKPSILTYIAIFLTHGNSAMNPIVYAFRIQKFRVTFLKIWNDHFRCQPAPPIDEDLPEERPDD
Nature of the test: biochemical.

SMILES strings stand for the structures. pKi: −log10 of the molar value.

Sequence of Adenosine receptors; A2a & A3 (Homo sapiens) (P29274 whole entry, looked up, one chain of several): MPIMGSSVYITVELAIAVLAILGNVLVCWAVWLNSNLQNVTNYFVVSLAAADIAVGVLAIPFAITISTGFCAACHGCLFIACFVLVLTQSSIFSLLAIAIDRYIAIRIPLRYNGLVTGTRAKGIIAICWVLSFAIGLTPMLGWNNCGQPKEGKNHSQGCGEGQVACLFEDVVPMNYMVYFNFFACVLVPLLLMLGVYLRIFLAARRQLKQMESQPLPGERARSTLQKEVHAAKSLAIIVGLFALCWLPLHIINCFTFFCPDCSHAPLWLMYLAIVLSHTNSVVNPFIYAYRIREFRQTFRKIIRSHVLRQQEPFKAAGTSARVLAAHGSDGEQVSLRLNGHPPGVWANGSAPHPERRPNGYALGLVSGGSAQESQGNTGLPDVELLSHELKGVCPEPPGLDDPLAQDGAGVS
Sequence of Adenosine receptor A2a (P29274 whole entry): as the sequence (P29274 whole entry, looked up, one chain of several) above
Description for Adenosine receptor A1: Displacement of [3H]CCPA from recombinant human adenosine A1 receptor expressed in CHO cells
Description for Adenosine receptor A2a: Displacement of [3H]CGS-21680 from recombinant human adenosine A2a receptor expressed in HEK cells
Description for Adenosine receptor A3: Displacement of [125I]-AB MECA from recombinant human adenosine A3 receptor expressed in HEK cells

Take `Nc1nc(-c2cnn(Cc3ccccc3)c2)nc2c1ncn2[C@@H]1O[C@H](CO)[C@@H](O)[C@H]1O`: the pKi (in general, the Ki on a negative log10 scale, so that one unit is a factor of ten) at Adenosine receptor A3 is under 5.00; at Adenosine receptor A2a, 8.82.
For `CNc1nc(-n2cc(-c3ccc(OC)cc3)cn2)nc2c1ncn2[C@@H]1O[C@H](CO)[C@@H](O)[C@H]1O`, the pKi at Adenosine receptor A3 is 7.82; at Adenosine receptor A2a it was under 5.30. For the same compound, the Selectivity in test [1] was over 300; in test [2], over 200.
With `CNc1nc(-n2cc(C(=O)NCc3ccc(Cl)cc3)cn2)nc2c1ncn2C1O[C@H](CO)[C@@H](O)[C@H]1O` (stereo partly specified), the negative-log Ki (pKi) at Adenosine receptor A3 is 6.80; at Adenosine receptor A1 it was 5.70; on Adenosine receptor A2a, 5.40. Moreover, in test [1], the Selectivity was found to be 25.
On to `OC[C@H]1OC(n2cnc3c(NCc4cccc(I)c4)nc(-n4cc(-c5nccc6ccccc56)cn4)nc32)[C@H](O)[C@@H]1O` (stereo partly specified), for which the results for the pKi at Adenosine receptor A3, on Adenosine receptor A1 and at Adenosine receptor A2a were 6.96, 6.11 and 7.28, respectively. Besides, the Selectivity in test [1] is under 1; in test [2] it was 7.
For `COc1ccc(-c2cnn(-c3nc(NCc4cccc(I)c4)c4ncn(C5O[C@H](CO)[C@@H](O)[C@H]5O)c4n3)c2)cc1` (stereo partly specified), the negative-log Ki (pKi) is 6.49 on Adenosine receptor A3, 5.35 on Adenosine receptor A1 and 5.40 on Adenosine receptor A2a. Also, the Selectivity in test [1] stood at 10; in test [2], 14.
`CNc1nc(-n2cc(-c3nc4ccccc4o3)cn2)nc2c1ncn2C1O[C@H](CO)[C@@H](O)[C@H]1O` (stereo partly specified): the pKi is 8.70 at Adenosine receptor A3, 5.59 on Adenosine receptor A1 and 5.60 on Adenosine receptor A2a. The Selectivity was 1200 in test [1] and 1300 in test [2].
In the case of `OC[C@H]1OC(n2cnc3c(NCc4cccc(I)c4)nc(-n4cc(-c5ccccn5)cn4)nc32)[C@H](O)[C@@H]1O` (stereo partly specified), the pKi on Adenosine receptor A3 is 6.77; on Adenosine receptor A1 it was 5.38; on Adenosine receptor A2a, under 5.41. The Selectivity in test [1] is over 22; in test [2], 24.
In the case of `CCCNc1nc(-c2cnn(Cc3ccccc3)c2)nc2c1ncn2C1O[C@H](CO)[C@@H](O)[C@H]1O` (stereo partly specified), the negative-log Ki (pKi) at Adenosine receptor A3 is 6.83.
Turning to `CCNC(=O)c1cnn(-c2nc(NC)c3ncn(C4O[C@H](CO)[C@@H](O)[C@H]4O)c3n2)c1` (stereo partly specified), the negative-log Ki (pKi) at Adenosine receptor A3 is 7.31.
Regarding `CNC(=O)c1cnn(-c2nc(N)c3ncn([C@@H]4O[C@H](CO)[C@@H](O)[C@H]4O)c3n2)c1` [REGADENOSON ANHYDROUS], on Adenosine receptor A3, the negative logarithm of the Ki (pKi) was under 5.00.
In the case of `CNc1nc(-n2cc(-c3ccc4ccccc4n3)cn2)nc2c1ncn2C1O[C@H](CO)[C@@H](O)[C@H]1O` (stereo partly specified), the pKi was 8.52 on Adenosine receptor A3, under 5.30 on Adenosine receptor A1 and under 5.30 on Adenosine receptor A2a. For the same compound, the Selectivity in test [1] and in test [2] was over 1600 in each case.
With `CCCNC(=O)c1cnn(-c2nc(NC)c3ncn(C4O[C@H](CO)[C@@H](O)[C@H]4O)c3n2)c1` (stereo partly specified), the pKi is 7.72 on Adenosine receptor A3, under 5.40 on Adenosine receptor A1 and under 5.40 on Adenosine receptor A2a. For the same compound, the Selectivity in test [1] and in test [2] was over 200 throughout.
Consider `CCNc1nc(-n2cc(-c3ccccn3)cn2)nc2c1ncn2[C@@H]1O[C@H](CO)[C@@H](O)[C@H]1O`, for which the negative-log Ki (pKi) at Adenosine receptor A3 is 6.97; on Adenosine receptor A2a it was 5.74.
In the case of `CNC(=O)c1cnn(-c2nc(NC)c3ncn([C@@H]4O[C@H](CO)[C@@H](O)[C@H]4O)c3n2)c1`, the negative-log Ki (pKi) at Adenosine receptor A3 is 7.14; at Adenosine receptor A2a, under 5.22. Besides, the Selectivity in test [1] and in test [2] was over 80 in each case.
With `CCCNc1nc(-n2cc(-c3ccc(OC)cc3)cn2)nc2c1ncn2C1O[C@H](CO)[C@@H](O)[C@H]1O` (stereo partly specified), the pKi is 7.19 on Adenosine receptor A3, 5.52 at Adenosine receptor A1 and 5.48 at Adenosine receptor A2a. The Selectivity stood at 50 in test [1] and 45 in test [2].
Turning to `CCNc1nc(-n2cc(-c3ccc(OC)cc3)cn2)nc2c1ncn2[C@@H]1O[C@H](CO)[C@@H](O)[C@H]1O`, the pKi on Adenosine receptor A3 is 7.39; at Adenosine receptor A2a it was 5.40. In addition, the results for the Selectivity in test [1] and in test [2] were 100 and 90, respectively.
As for `CNc1nc(-n2cc(-c3ccncc3)cn2)nc2c1ncn2C1O[C@H](CO)[C@@H](O)[C@H]1O` (stereo partly specified), the results for the pKi on Adenosine receptor A3, at Adenosine receptor A1 and on Adenosine receptor A2a were 8.22, 5.42 and under 5.30, respectively. Moreover, the values for the Selectivity in test [1] and in test [2] were over 800 and 600, respectively.
In the case of `CNc1nc(-c2cnn(Cc3ccccc3)c2)nc2c1ncn2C1O[C@H](CO)[C@@H](O)[C@H]1O` (stereo partly specified), the negative-log Ki (pKi) on Adenosine receptor A3 is 7.01; at Adenosine receptor A1, 5.89; at Adenosine receptor A2a it was under 5.30. In addition, the Selectivity in test [1] is over 50; in test [2], 13.
On Adenosine receptor A2a, `CNc1nc(-n2cc(-c3ccccn3)cn2)nc2c1ncn2[C@@H]1O[C@H](CO)[C@@H](O)[C@H]1O` gave a pKi of under 5.30.
Consider `COc1ccc(-c2cnn(-c3nc(N)c4ncn([C@@H]5O[C@H](CO)[C@@H](O)[C@H]5O)c4n3)c2)cc1`, for which the pKi at Adenosine receptor A3 is under 5.22; on Adenosine receptor A2a, 6.72.
As to `CNc1nc(-n2cc(-c3cccnc3)cn2)nc2c1ncn2C1O[C@H](CO)[C@@H](O)[C@H]1O` (stereo partly specified), the negative-log Ki (pKi) at Adenosine receptor A3 is 8.70; on Adenosine receptor A1, 5.74; on Adenosine receptor A2a it was 5.39. The figures for the Selectivity in test [1] and in test [2] were 2000 and 900, respectively.
`CNc1nc(-n2cc(-c3ccc(Cl)cc3)cn2)nc2c1ncn2C1O[C@H](CO)[C@@H](O)[C@H]1O` (stereo partly specified): the pKi at Adenosine receptor A3 is 8.00; at Adenosine receptor A1, under 5.22; at Adenosine receptor A2a, under 5.30. Moreover, the Selectivity in test [1] is over 500; in test [2], over 600.
